Measurements published in patent EP0167553B1, “NEW THERAPEUTICAL APPLICATION OF AN INDANE DIONE DERIVATIVE AND PHARMACEUTICAL COMPOSITIONS INTENDED TO SAID UTILIZATION” (priority 1983, dated 1985).
Where “and” joins values, the source holds several entries; their conditions need not be identical. Identical values can stand only once.

Columns and labels:
[1] = test system: Souris SWISS; test: Acute toxicity, single administration, digestive (oral) route; format: in vivo; settings: for létalité, symptomatologie toxique: 10.000 mg/kg VO, single dose, 10 souris mâles et femelles
Description: Souris SWISS mâles et femelles de 22 à 25g de poids corporel. Animaux EOPS. (exempte d'organisme pathogène spécifique), en provenance de l'élevage CERJ., 53680 LE GENEST et acclimatés au moins 8 jours à l'animalerie du laboratoire.
Sauf mention contraire précisée dans les tableaux de résultats, 10 animaux par dose, sexe et cage en MAKROLON SAFI@ de 40/25 cm. Litière de copeaux de bois blanc. Alimentation standard pour rats et souris UAR et eau ordinaire à volonté.
Ils sont administrés sans jeûne préalable: • - par voie digestive (intubation gastrique par sonde oesophagienne métallique) à raison de 0,5 ml ou 1 ml pour 20 g de poids corporel d'une suspension aqueuse à 3p.100 en gomme arabique du dérivé testé. • - par voie intrapéritonéale à raison de 0,5 ml ou 1 ml pour 20 g d'une suspension du dérivé testé dans le soluté isotonique de chlorure de sodium à 3p.100 en gomme arabique.
Pendant 6 heures après l'administration unique, puis tous les jours pendant 15 jours.
S'il y a lieu, les doses létales cinquante (DL50) sont calculées selon les méthodes de: • - Behrens et Karber (B.K.) • - Miller et Tainter (M.T.), cette dernière méthode permettant d'attribuer, pour le seuil de probabilité de P = 0,05 un intervalle de confiance aux DL 50.
En outre, sont déterminées les DLO et DL100. • - DLO = DMT: Dose Maxima toujours tolérée • - DL100 = DmM: Dose minima toujours Mortelle.

[2] = test system: Rats: Wistar femelles; test: Atherogenic diet (modified Aubert technique): histopathological examination; format: in vivo, Rat Wistar; settings: 100 mg/kg; three parameters scored relative to Clofibrate
Description: La technique utilisée est celle, légèrement modifiée, de AUBERT D., FERAUD J.C., LACAZE B., PEPINO., PANAK E. et PODESTA M. "Athérogénèse expérimentale chez le Rat Wistar". ATHEROSCLEROSIS 2Q (1974) 263 - 280.
• - Rats: Wistar femelles, E.O.P.S. en provenance de l'élevage EVIC-CEBA. • - Poids corporel: 160 180 g au départ de l'étude • - Alimentation: UAR A03, enrichi en cholestérol (0,5 %) et en Acide chloique (0,5 %). • - Eau de boisson: eau de ville. • - 15 animaux par lot et par cage MAKROLON SAFI® de 59 x 38,5 cm sur litière de copeaux de bois blanc dépoussiérés. • - Cages placées dans un module animalerie climatisé (20°C * 1°C), à l'humidité constante (50 % ± 10 %). Durée d'éclairement: 12 heures par jour (7 h à 19 h). • - Administration des produits: Après 15 jours de régime athéromateux, on leur administre par voie orale pendant 4 jours 250 000 Ul/kg de vitamine D2 (Stérogyl 15 H) en solution dans l'huile d'olive. On administre ensuite les produits à étudier pendant 4 semaines dès la fin de l'administration de l'agent lésionnel.
Les aortes, les foies et les coeurs sont fixés au Bouitaqueux et inclus à la paraffine après passage par les alcools à concentration croissante et par le toluène.
Les foies sont colorés par la technique à l'hématéine-éosine. Les aortes sont colorées par: • - la technique à l'orcéine - vert lumière afin de mettre en évidence les altérations structurales des lames élastiques. • - la technique à l'acide périodique plus réactif de Schiff pour déceler les dépôts de mucopolysaccharides, • - la technique à l'hématéine plus éosine afin de mettre en évidence les dépôts de calcium.
L'intensité des altérations observées et le degré d'athéromatose sont indiquées par l'un des signes:
• - Pas d'athéromatose 0 • = Très léger degré d'athéromatose 0,5 • + Léger degré d'athéromatose 1 • ++ Moyen degré d'athéromatose 2 • +++Important degré d'athéromatose 3
Les zones athéromateuses sont dénombrées sur une longueur identique pour chacune des aortes examinées. […]

[3] = Earlier anti-inflammatory test; format: in vivo; settings: dose de 250 mg/kg

SMILES	DL50 ([1]; mouse, in vivo, po, 360 h) [mg/kg]	Histologie score [2]	létalité, symptomatologie toxique [1]	létalité, symptomatologie toxique ([1]; listed as dérivé)	DLO ([1]; VO, souris mâles et femelles) [mg/kg]	DL100 ([1]; mouse, in vivo, 21600 min) [mg/kg]	effet anti-inflammatoire [3]
CCOC(=O)C(C)(C)Oc1ccc(Cl)cc1 [Clofibrate]	2650 ± 190	3.00					
COc1ccc(C(=O)CC2(O)C(=O)c3ccccc3C2=O)cc1OC [Produit de l'invention, 2-[(3,4-dimethoxybenzoyl)methyl] 2-hydroxy 1,3-dioxo indane]		1.3 and 1.32	ni létalité, ni symptomatologie toxique	n'est pas toxique	≥ 10.000	> 10000	effet liminaire anti-inflammatoire
